In article PMC4992173, “Divergent synthesis and identification of the cellular targets of deoxyelephantopins” (Nature Communications, 2016):

Columns and labels:
[1] = system: 11 identified targets in MCF7 cells; assay: Targeted in situ competitive profiling in live MCF7 cells, all 11 targets; assay type: cell-based, human; settings: intact MCF7 cells, 20 µM, 4 h, then 10 µM 24c
Text: (§1) In our efforts to determine the direct molecular targets of deoxyelephantopin we first performed a gel-based competitive in situ proteomic profiling assay[41] […] While the greater conformational flexibility of probe 24c could potentially lead to more promiscuous target engagement relatively to deoxyelephantopin, it was favoured based on the fact that an alkyne moiety appended to the rigid scaffold of deoxyelephantopin may hinder some of its interactions. MCF7 cells were pretreated with various concentrations of deoxyelephantopin for 4 h, harvested, lysed and the lysates were treated with the fluorogenic probe 24c-Cy3 (10 μM; Supplementary Fig. 10). […] Furthermore, cells were pretreated with 20 μM concentration of deoxyelephantopin or 24c and the proteomic profiles were compared (Fig. 6b, Supplementary Fig. 11). Multiple bands were detected that were equally competed by both DEP and 24c, thus again confirming that 24c can be used as an acceptable clickable analogue of deoxyelephantopin in pulldown assays. Having established the optimal labelling conditions by SDS–PAGE, we next carried out a mass spectrometry-based competitive profiling assay[42] coupled with the method of stable isotope labelling of amino acids in culture (SILAC)[43]. […]
(§2) Figure 6 Proteome-wide identification of deoxyelephantopin targets. […] Quantification was performed using label-free quantification (LFQ) method (n=4). […]

[2] = molecular target: T1, Cystathionine beta-synthase (CBS) (Homo sapiens, UniProt P35520); assay: In situ competitive profiling in live MCF7 cells (LFQ): CBS; assay type: cell-based; settings: protein CBS, 4 h, then 10 µM 24c, n=4
T1 construct: endogenous in cells; host or cells: MCF7
Text: as §1, §2

[3] = system: several human cancer cell lines; settings: cited from earlier work

T1 sequence (P35520 whole entry): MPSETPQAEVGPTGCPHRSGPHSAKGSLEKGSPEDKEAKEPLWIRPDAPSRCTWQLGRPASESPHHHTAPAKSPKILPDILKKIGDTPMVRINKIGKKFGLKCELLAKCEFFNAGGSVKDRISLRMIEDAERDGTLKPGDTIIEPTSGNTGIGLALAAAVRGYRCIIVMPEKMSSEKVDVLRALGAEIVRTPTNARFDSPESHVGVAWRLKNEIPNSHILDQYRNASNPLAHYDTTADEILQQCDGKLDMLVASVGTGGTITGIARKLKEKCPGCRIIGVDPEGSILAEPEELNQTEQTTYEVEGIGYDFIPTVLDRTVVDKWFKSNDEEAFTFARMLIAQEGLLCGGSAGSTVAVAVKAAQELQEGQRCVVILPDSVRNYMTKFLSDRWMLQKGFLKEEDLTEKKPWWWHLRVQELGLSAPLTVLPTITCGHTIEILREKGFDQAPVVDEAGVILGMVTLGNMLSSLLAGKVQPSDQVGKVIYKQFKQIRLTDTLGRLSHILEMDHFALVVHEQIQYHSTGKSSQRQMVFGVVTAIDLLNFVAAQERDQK

## C=C(C)C(=O)O[C@H]1CC2=C[C@@H](C/C(C)=C/[C@H]3OC(=O)C(=C)[C@H]13)OC2=O [deoxyelephantopin]
[1]
  competition of all 11 targets in situ: > 70%
[2]
  LFQ ratio 20 µM Deoxyelephantopin/DMSO with 24c: 0.00
[3]
  cytotoxic doses: 0.5 to 2 µg/mL
